Assay results: patent US20040177664A1, “Production of a high quality organic-based fertilizer” (priority 2003, published 2004)
“And” between values parts separate entries of the source, which are not always exact repeats. Equal entries are not always repeated.

Columns and labels:
[1] = Influence of additives on sludge pH; format: physicochemical; settings: for sludge pH: 0.5 g of each additive on about 5 g sludge
Method: The influence of different additives on the sludge pH was also evaluated.
Influence of Additives on Sludge PH
Treatments with urea, CaSO4, CaO

[2] = Odor reduction of municipal sludge, headspace GC-MS and odor; design: reducing odor / Relative reduction of peak area: concentration or dose not given beside the values; settings: for reducing odor: oxidizing agents, general statement
Method: Effectiveness of the treatments was evaluated through the GC-MS analysis of the treated and untreated sludge. Sludge (5.0 g) was placed into a 44 ml vial. After heating to 60.0° C. for 5.0 minutes a probe of gas was taken from the vial (0.5 ml) and injected into the GC-MS.
Hewlett-Packard (HP) GC 5890 coupled with an HP 5971 mass-spectrometer. The system incorporates an electron beam as an ion source. Ions are filtered through a glass with silver-coated quadruples.
A DB5MS capillary chromatographic column is used and the MS is tuned with PFTBA in a Scan Mode (tune file: BFB.U).
For further characterization the peak area of the 94-ion was selected. The calibration was performed using dimethyldisulfide. A calibration curve is presented in the attached data.
In the first series, 6.00 g (±0.05) of the sludge with the addition of 10.0 ml of distilled water was used. For the treatment, we used potential oxidizers such as KNO3 and H2SO4 in different combinations.
In the second series we used 5.00 g (±0.01) of the sludge with no dilution. For the treatment we used additions of hydrogen peroxide (30%) −0.5 ml, sulfuric acid (98%), −0.5 ml, a combination of hydrogen peroxide and 0.5 ml and sulfuric acid 0. ml, ammonia (54%) −0.5ml, calcium hypochlorite −0.5 g.
The effectiveness of the additions is evaluated through decreasing the area of 94-ion signal with retention time around 1.94 minutes. We also investigated the influence of time.
The samples of the sludge (approximately 5.0 g) were placed into the vials and treated with additions of CaOCl2 at a temperature of 60.0° C.
The reproducibility of the treatment with calcium hypochlorite Ca(OCl)2 (CHC) on sludge was investigated. In all experiments, 5.0 g of sludge in a special vial was treated with an addition of percent of weight of odor reducer (0.05 g). After heating to 60.0° C. for 5.0 minutes, a sample of vapor over the sludge was taken and injected into the GC/MS. Total Ion Chromatograph signal with retention time […] were used for evaluation of the treatment corresponding to dimethylsulfide).

Compound | sludge pH [1] | reducing odor [2] [%] | effect on sludge pH [1] | also measured
[O]=[Ca] [CaO, calcium oxide] | 11.5 and 11.65 | – | – | sludge pH ([1]; listed as calcium oxide): 11.8
[Ca+2].[O-]Cl.[O-]Cl [CaOCl2, calcium hypochlorite] | – | 98 | does not affect the sludge pH | Relative reduction of peak area ([2]; against untreated sludge 376025): 97.98% and 96.16% and 98.54% and 96.59% and 98.86% and 99.03% and 99.17% and 99.47%; Average Relative Reduction of the peak area ([2]; eight replicates, confidence interval 95%): 98.23% and 98.23±0.85%
O=S(=O)([O-])[O-].[Ca+2] [CaSO4, Calcium sulfate] | 6.3 and 6.25 | – | does not change the sludge pH | –
NC(N)=O [Urea] | 8.32 and 8.45 | – | – | –
[K+].[O-]Cl [potassium hypochlorite] | – | 98 | – | –
